Counter-ions that a name gives are not always drawn. Like-named read-outs stand apart in the source and are kept apart here.
Legend:
Streptococcus 82 = test: In vitro MIC, Agar Well Diffusion Method; format: cell-based, Streptococcus aureus
Protocol: (§1) In vitro antimicrobial activity was determined in BBL seed agar. Serial dilutions of the test compound were pipetted into agar wells (80 μL per well). […] For reference, see A. H. Litton, Antibiotics: Assessment of Antimicrobial Activity and Resistance, Academic Press, New York, pages 19-30 (1983).

Proteus mirabilis 2 = test: In vitro MIC, Broth Dilution Method; format: cell-based
Protocol: (§2) The diluted agents prepared in Mueller-Hinton broth were dispensed from a Dynatech MIC 2000 machine, in 100 microliter (μL) volumes into 96 well trays and used immediately or frozen at -10° to -70° C. until needed. Using a Dynatech inoculator and inoculum trays, 1.5 μL of a 10^-2 dilution of an overnight culture was added to each well of the tray. The tops of the trays were then sealed with tape, and the trays were incubated overnight at 37° C. and then examined with a viewer. The lowest concentration at which no growth was observed was considered to be the minimum inhibitory concentration (MIC).

[1] = system: Proteus vulgaris ATCC 6380; test: In vitro MIC, Broth Dilution Method; format: cell-based; settings: Proteus vulgaris, ATCC6380, read-out: In Vitro MIC
Protocol: as §2

[2] = system: Citrobacter freundii BS-16; test: In vitro MIC, Broth Dilution Method; format: cell-based; settings: BS16; Broth Dilution Method; Citrobacter freundii BS-16; read-out: In Vitro MIC
Protocol: as §2

[3] = system: Streptococcus faecalis ATCC 29212; test: In vitro MIC, Broth Dilution Method; format: cell-based; settings: Enterococcus faecalis
Protocol: as §2

Escherichia coli TEM-1 = test: In vitro MIC, Broth Dilution Method; format: cell-based; settings: TEM1, read-out: In Vitro MIC
Protocol: as §2

[4] = system: Enterobacter cloacae 5699; test: In vitro MIC, Broth Dilution Method; format: cell-based; settings: Enterobacter cloacae, 5699, read-out: In Vitro MIC
Protocol: as §2

[5] = system: Pseudomonas aeruginosa ATCC 27853; test: In vitro MIC, Broth Dilution Method; format: cell-based
Protocol: as §2

[6] = system: Staphylococcus aureus Smith; test: In vitro MIC, Broth Dilution Method; format: cell-based; settings: Broth Dilution Method; Staphylococcus aureus Smith; read-out: In Vitro MIC
Protocol: as §2

Serratia marcescens SM [7] = test: In vitro MIC, Broth Dilution Method; format: cell-based; settings: read-out: In Vitro MIC
Protocol: as §2

Klebsiella pneumoniae A = test: In vitro MIC, Broth Dilution Method; format: cell-based; settings: read-out: In Vitro MIC
Protocol: as §2

Enterobacter cloacae P99 = test: In vitro MIC, Broth Dilution Method; format: cell-based; settings: P99, read-out: In Vitro MIC
Protocol: as §2

Proteus vulgaris 101N = test: In vitro MIC, Agar Well Diffusion Method; format: cell-based; settings: read-out: In Vitro MIC
Protocol: as §1

[8] = system: Enterobacter cloacae 2952B; test: In vitro MIC, Agar Well Diffusion Method; format: cell-based; settings: read-out: In Vitro MIC
Protocol: as §1

[9] = system: Streptococcus faecium ATCC 8043; test: In vitro MIC, Agar Well Diffusion Method; format: cell-based; settings: Enterococcus faecium
Protocol: as §1

Escherichia coli 1269B = test: In vitro MIC, Agar Well Diffusion Method; format: cell-based; settings: read-out: In Vitro MIC
Protocol: as §1

Micrococcus luteus PCl = test: In vitro MIC, Agar Well Diffusion Method; format: cell-based; settings: read-out: In Vitro MIC
Protocol: as §1

Serratia marcescens SM [10] = test: In vitro MIC, Agar Well Diffusion Method; format: cell-based; settings: read-out: In Vitro MIC
Protocol: as §1

[11] = system: Pseudomonas aeruginosa 56; test: In vitro MIC, Agar Well Diffusion Method; format: cell-based
Protocol: as §1

[12] = system: Klebsiella pneumoniae 369; test: In vitro MIC, Agar Well Diffusion Method; format: cell-based
Protocol: as §1

Pseudomonas aeruginosa B = test: In vitro MIC, Agar Well Diffusion Method; format: cell-based; settings: read-out: In Vitro MIC
Protocol: as §1

[13] = system: Staphylococcus aureus ATCC 29213; test: In vitro MIC, Broth Dilution Method; format: cell-based
Protocol: as §2

Proteus mirabilis 90 = test: In vitro MIC, Broth Dilution Method; format: cell-based; settings: Broth Dilution Method; Proteus mirabilis 90; read-out: In Vitro MIC
Protocol: as §2

[14] = system: Streptococcus pneumoniae 6301; test: In vitro MIC, Broth Dilution Method; format: cell-based
Protocol: as §2

Escherichia coli 4 = test: In vitro MIC, Broth Dilution Method; format: cell-based
Protocol: as §2

[15] = Agar Well Diffusion Method, Streptococcus aureus 82, read-out: In Vitro MIC
[16] = ATCC29212, Broth Dilution Method, Streptococcus faecalis ATCC 29212, read-out: In Vitro MIC
[17] = ATCC27853, Broth Dilution Method, Pseudomonas aeruginosa ATCC 27853, read-out: In Vitro MIC
[18] = Broth Dilution Method, Serratia marcescens SM
[19] = Broth Dilution Method, Klebsiella pneumoniae A
[20] = Agar Well Diffusion Method, Proteus vulgaris 101N
[21] = Agar Well Diffusion Method, Enterobacter cloacae 2952B
[22] = ATCC8043, Agar Well Diffusion Method, Streptococcus faecium ATCC 8043, read-out: In Vitro MIC
[23] = Agar Well Diffusion Method, Escherichia coli 1269B
[24] = Agar Well Diffusion Method, Micrococcus luteus PCl
[25] = Agar Well Diffusion Method, Serratia marcescens SM
[26] = Agar Well Diffusion Method, Pseudomonas aeruginosa 56, read-out: In Vitro MIC
[27] = Agar Well Diffusion Method, Klebsiella pneumoniae 369, read-out: In Vitro MIC
[28] = Agar Well Diffusion Method, Pseudomonas aeruginosa B
[29] = Proteus mirabilis, 2, read-out: In Vitro MIC

| Structure (SMILES) | MIC (Streptococcus 82; [15]) [µg/mL] | MIC [1] [µg/mL] | MIC [2] [µg/mL] | MIC [3, 16] [µg/mL] | MIC (Escherichia coli TEM-1) [µg/mL] | MIC [4] [µg/mL] | MIC [5, 17] [µg/mL] | MIC (Serratia marcescens SM [7]; [18]) [µg/mL] | MIC (Klebsiella pneumoniae A; [19]) [µg/mL] | MIC (Enterobacter cloacae P99) [µg/mL] | MIC (Proteus vulgaris 101N; [20]) [µg/mL] | MIC [8, 21] [µg/mL] | MIC [9, 22] [µg/mL] | MIC (Escherichia coli 1269B; [23]) [µg/mL] | MIC (Micrococcus luteus PCl; [24]) [µg/mL] | MIC (Serratia marcescens SM [10]; [25]) [µg/mL] | MIC [11, 26] [µg/mL] | MIC [12, 27] [µg/mL] | MIC (Pseudomonas aeruginosa B; [28]) [µg/mL] | MIC (Proteus mirabilis 2; [29]) [µg/mL] | also measured |
| --- | --- | --- | --- | --- | --- | --- | --- | --- | --- | --- | --- | --- | --- | --- | --- | --- | --- | --- | --- | --- | --- |
| CCn1cc(C(=O)O)c(=O)c2cc(F)c(N3CCN(C=N[C@@H]4C(=O)N5[C@@H]4SC(C)(C)[C@@H]5C(=O)O)CC3)cc21 [Compound B, [2S-(2α,5α,6β)]-7-[4-[[[2-(Carboxy)-3,3-dimethyl-7-oxo-4-thia-1-azabicyclo[3.2.0]hept-6-yl]imino]methyl]-1-piperazinyl]-1-ethyl-6-fluoro-1,4-dihydro-4-oxo-3-quinolinecarboxylic acid monosodium salt] | 7.8 | 0.063 | 0.25 | 2 | 0.031 | 0.063 | 8 | 0.125 | 0.125 | 0.063 | 1.95 | 15.6 | 62.5 | 0.98 | 31.3 | 62.5 | 7.8 | 3.9 | 7.8 | – | MIC (Proteus mirabilis 2; Broth Dilution Method, Proteus mirabilis 2, read-out: In Vitro MIC): 0.125 µg/mL; MIC [6]: 0.25 µg/mL |
| CCn1cc(C(=O)O)c(=O)c2cc(F)c(N3CCN(C=N[C@@H]4C(=O)N5C(C(=O)O)=C(C)CS[C@H]45)CC3)cc21 [Compound C, 6R-[6α,7β(E(]]-7-[4-[[(2-Carboxy-3-methyl-8-oxo-5-thia-1-azabicyclo[4.2.0]oct-2-en-7-yl)imino]-methyl]-1-piperazinyl]-1-ethyl-6-fluoro-1,4-dihydro-4-oxo-3-quinolinecarboxylic acid disodium salt] | 15.6 | 0.063 | 0.25 | 8 | 0.063 | 0.063 | 2 | 0.125 | 0.125 | 0.125 | 0.98 | 7.8 | 500 | 3.9 | 250 | 3.9 | 3.9 | 3.9 | 3.9 | 0.063 | MIC ([13]; ATCC29213, Broth Dilution Method, Staphylococcus aureus ATCC 29213, read-out: In Vitro MIC): 1 µg/mL; MIC (Proteus mirabilis 90): 0.25 µg/mL; MIC ([14]; Broth Dilution Method, Streptococcus pneumoniae 6301, read-out: In Vitro MIC): 8 µg/mL; MIC (Escherichia coli 4; Broth Dilution Method, Escherichia coli 4, read-out: In Vitro MIC): 0.125 µg/mL |
| CCn1cc(C(=O)[O-])c(=O)c2cc(F)c(N3CCN(C=N[C@@H]4C(=O)N(S(=O)(=O)[O-])[C@@H]4COC(N)=O)CC3)cc21.[Na+].[Na+] [Compound F, (2S-cis)-7-[4-[[[2-[[(Aminocarbonyl)oxy]methyl]-4-oxo-1-sulfo-3-azetidinyl]imino]methyl]-1-piperazinyl]-1-ethyl-6-fluoro-1,4-dihydro-4-oxo-3-quinolinecarboxylic acid disodium salt] | – | 0.031 | – | – | 0.063 | 0.063 | – | – | – | 0.125 | – | – | – | – | – | – | – | – | – | 0.063 | MIC (Streptococcus 82; Streptococcus, 82, read-out: In Vitro MIC): 31.3 µg/mL; MIC ([13]; Staphylococcus aureus, ATCC29213, read-out: In Vitro MIC): 2 µg/mL; MIC ([3]; ATCC29212, read-out: In Vitro MIC): 4 µg/mL; MIC ([5]; Pseudomonas aeruginosa, ATCC27853, read-out: In Vitro MIC): 2 µg/mL; MIC (Serratia marcescens SM [7]; Serratia marcescens): 0.063 µg/mL; MIC ([14]; Streptococcus pneumoniae, 6301, read-out: In Vitro MIC): 8 µg/mL; MIC (Klebsiella pneumoniae A; Klebsiella pneumoniae): 0.125 µg/mL; MIC (Escherichia coli 4; Escherichia coli, 4, read-out: In Vitro MIC): 0.125 µg/mL; MIC (Proteus vulgaris 101N; Proteus vulgaris, 101N): 1.95 µg/mL; MIC ([8]; Enterobacter cloacae, 2952B): 31.3 µg/mL; MIC ([9]; ATCC8043, read-out: In Vitro MIC): 500 µg/mL; MIC (Escherichia coli 1269B; Escherichia coli, 1269B): 7.8 µg/mL; MIC (Micrococcus luteus PCl; Micrococcus luteus): 500 µg/mL; MIC (Serratia marcescens SM [10]; Serratia marcescens): 62.5 µg/mL; MIC ([11]; Pseudomonas aeruginosa, 56, read-out: In Vitro MIC): 7.8 µg/mL; MIC ([12]; Klebsiella pneumoniae, 369, read-out: In Vitro MIC): 3.9 µg/mL; MIC (Pseudomonas aeruginosa B; Pseudomonas aeruginosa): 7.8 µg/mL |

— patent US5159077A, “Penam antibacterial compounds” (Hoffmann-La Roche Inc., priority 1989, dated 1992)
